According to ChEMBL document CHEMBL5724914, “Linking interpersonal differences in gut microbiota composition and drug biotransformation activity” (2024):

What was measured:
[1] = human gut metagenome, 24 h, 2 µM
[2] = (§1) The drug is tested on Z-006 corresponding to mouse gut metagenome with ENA study accession number: PRJEB37062 and ENA sample accession number: ERS12561806 for biotransformation under anaerobic condition. The drug concentrations were measured over 9 timepoints collected between 0 and 24 hours of incubation by liquid-chromatography-coupled mass spectrometry (LC–MS); conditions: 2 µM
[3] = human gut metagenome, 24 h, 2 µM; remark: listed apart in the source
[4] = human gut metagenome, 24 h, 2 µM; remark: listed apart in the source
[5] = as §1, with “WLS-039” for “Z-006”, “human” for “mouse”, “ERS12561746” for “ERS12561806”; conditions: 2 µM
[6] = as §1, with “Z-014” for “Z-006”, “rat” for “mouse”, “ERS12561814” for “ERS12561806”; conditions: 2 µM
[7] = as §1, with “WLS-010” for “Z-006”, “human” for “mouse”, “ERS12561743” for “ERS12561806”; conditions: 2 µM
[8] = human gut metagenome, 24 h, 2 µM; remark: listed apart in the source
[9] = human gut metagenome, 24 h, 2 µM; remark: listed apart in the source
[10] = as §1, with “WLS-170” for “Z-006”, “human” for “mouse”, “ERS12561762” for “ERS12561806”; conditions: 2 µM
[11] = human gut metagenome, 24 h, 2 µM; remark: listed apart in the source
[12] = as §1, with “Z-008” for “Z-006”, “to” for “to mouse gut”, “ERS12561808” for “ERS12561806”; conditions: 2 µM
[13] = as §1, with “WLS-052” for “Z-006”, “human” for “mouse”, “ERS12561747” for “ERS12561806”; conditions: 2 µM
[14] = as §1, with “WLS-098” for “Z-006”, “human” for “mouse”, “ERS12561754” for “ERS12561806”; conditions: 2 µM
[15] = as §1, with “Z-002” for “Z-006”, “rabbit” for “mouse”, “ERS12561802” for “ERS12561806”; conditions: 2 µM
[16] = human gut metagenome, 24 h, 2 µM; remark: listed apart in the source
[17] = as §1, with “Z-012” for “Z-006”, “to” for “to mouse gut”, “ERS12561812” for “ERS12561806”; conditions: 2 µM
[18] = human gut metagenome, 24 h, 2 µM; remark: listed apart in the source
[19] = as §1, with “WLS-310” for “Z-006”, “human” for “mouse”, “ERS12561785” for “ERS12561806”; conditions: 2 µM
[20] = as §1, with “Z-019” for “Z-006”, “rat” for “mouse”, “ERS12561818” for “ERS12561806”; conditions: 2 µM
Also: call rule not given here.

Row | Compound | Bacterial Biotransformation [1] | Bacterial Biotransformation [2] | Bacterial Biotransformation [3] | Bacterial Biotransformation [4] | Bacterial Biotransformation [5] | Bacterial Biotransformation [6] | Bacterial Biotransformation [7] | Bacterial Biotransformation [8] | Bacterial Biotransformation [9] | Bacterial Biotransformation [10] | Bacterial Biotransformation [11] | Bacterial Biotransformation [12] | Bacterial Biotransformation [13] | Bacterial Biotransformation [14] | Bacterial Biotransformation [15] | Bacterial Biotransformation [16] | Bacterial Biotransformation [17] | Bacterial Biotransformation [18] | Bacterial Biotransformation [19] | Bacterial Biotransformation [20]
1 | CC(C)(C)NC(=O)[C@H]1CC[C@H]2[C@@H]3CC[C@H]4NC(=O)C=C[C@]4(C)[C@H]3CC[C@]12C [FINASTERIDE] | Compound metabolized | Compound metabolized | Compound metabolized | Compound metabolized | Compound metabolized | Compound NOT metabolized | Compound metabolized | Compound metabolized | Compound metabolized | Compound metabolized | Compound metabolized | Compound NOT metabolized | Compound metabolized | Compound metabolized | Compound metabolized | Compound metabolized | Compound metabolized | Compound metabolized | Compound metabolized | –
2 | CN1[C@@H]2CC[C@H]1C[C@@H](OC(=O)[C@H](CO)c1ccccc1)C2 [HYOSCYAMINE] | – | – | – | Compound metabolized | – | Compound NOT metabolized | – | Compound NOT metabolized | – | Compound metabolized | – | – | – | Compound metabolized | – | – | Compound NOT metabolized | Compound metabolized | Compound metabolized | Compound NOT metabolized
3 | COC1=C(OC)C(=O)C(CCCCCCCCCCO)=C(C)C1=O [IDEBENONE] | Compound metabolized | Compound metabolized | Compound metabolized | – | Compound metabolized | Compound metabolized | Compound metabolized | Compound metabolized | – | Compound NOT metabolized | – | – | Compound metabolized | – | Compound metabolized | Compound metabolized | Compound metabolized | Compound metabolized | Compound metabolized | Compound NOT metabolized
4 | C#C[C@]1(OC(C)=O)CC[C@H]2[C@@H]3CCC4=CC(=O)CC[C@@H]4[C@H]3CC[C@@]21C [NORETHINDRONE ACETATE] | Compound metabolized | Compound metabolized | Compound metabolized | – | Compound metabolized | – | Compound metabolized | Compound metabolized | Compound metabolized | Compound metabolized | – | Compound metabolized | Compound metabolized | Compound metabolized | Compound metabolized | Compound metabolized | – | – | – | Compound metabolized
5 | CC(=O)O[C@H]1C(=O)[C@@]2(C)[C@H]([C@H](OC(=O)c3ccccc3)[C@]3(O)C[C@H](OC(=O)[C@H](O)[C@@H](NC(=O)c4ccccc4)c4ccccc4)C(C)=C1C3(C)C)[C@]1(OC(C)=O)CO[C@@H]1C[C@@H]2O [PACLITAXEL] | – | Compound NOT metabolized | Compound NOT metabolized | – | Compound metabolized | Compound metabolized | Compound metabolized | Compound NOT metabolized | Compound metabolized | Compound NOT metabolized | Compound NOT metabolized | Compound NOT metabolized | Compound metabolized | Compound NOT metabolized | Compound metabolized | Compound NOT metabolized | Compound NOT metabolized | – | Compound NOT metabolized | Compound NOT metabolized

More lines, now with the values ahead:

Row | Bacterial Biotransformation [1] | Bacterial Biotransformation [2] | Bacterial Biotransformation [3] | Bacterial Biotransformation [4] | Bacterial Biotransformation [5] | Bacterial Biotransformation [6] | Bacterial Biotransformation [7] | Bacterial Biotransformation [8] | Bacterial Biotransformation [9] | Bacterial Biotransformation [10] | Bacterial Biotransformation [11] | Bacterial Biotransformation [12] | Bacterial Biotransformation [13] | Bacterial Biotransformation [14] | Bacterial Biotransformation [15] | Bacterial Biotransformation [16] | Bacterial Biotransformation [17] | Bacterial Biotransformation [18] | Bacterial Biotransformation [19] | Bacterial Biotransformation [20] | Compound
6 | Compound NOT metabolized | Compound metabolized | Compound NOT metabolized | Compound NOT metabolized | Compound metabolized | Compound NOT metabolized | Compound metabolized | Compound NOT metabolized | Compound NOT metabolized | Compound metabolized | Compound NOT metabolized | Compound NOT metabolized | Compound metabolized | Compound metabolized | Compound metabolized | Compound NOT metabolized | Compound NOT metabolized | – | – | – | CSc1ccc2c(c1)C(N1CCN(C)CC1)Cc1ccccc1S2.O=C(O)/C=C\C(=O)O (stereo not drawn)
7 | Compound metabolized | Compound NOT metabolized | Compound metabolized | Compound metabolized | Compound metabolized | Compound NOT metabolized | Compound NOT metabolized | Compound NOT metabolized | Compound metabolized | Compound metabolized | Compound metabolized | Compound NOT metabolized | Compound NOT metabolized | Compound metabolized | Compound NOT metabolized | Compound metabolized | Compound NOT metabolized | Compound metabolized | Compound metabolized | – | CN1CCC[C@@H]1CCO[C@](C)(c1ccccc1)c1ccc(Cl)cc1.O=C(O)/C=C/C(=O)O [CLEMASTINE FUMARATE]
8 | Compound NOT metabolized | Compound NOT metabolized | Compound NOT metabolized | Compound NOT metabolized | Compound NOT metabolized | – | Compound NOT metabolized | Compound NOT metabolized | Compound NOT metabolized | Compound NOT metabolized | Compound NOT metabolized | Compound NOT metabolized | Compound NOT metabolized | Compound NOT metabolized | Compound metabolized | Compound NOT metabolized | – | Compound NOT metabolized | Compound NOT metabolized | – | CCOC(=O)[C@H](CCc1ccccc1)N[C@@H](C)C(=O)N1CCC[C@H]1C(=O)O.O=C(O)/C=C\C(=O)O [ENALAPRIL MALEATE]
9 | Compound metabolized | Compound metabolized | Compound metabolized | Compound metabolized | Compound metabolized | Compound metabolized | Compound metabolized | Compound metabolized | Compound metabolized | – | Compound metabolized | Compound metabolized | Compound metabolized | Compound metabolized | – | Compound metabolized | Compound metabolized | Compound metabolized | Compound metabolized | Compound NOT metabolized | CC(=O)OCC(=O)NCCCOc1cccc(CN2CCCCC2)c1 [ROXATIDINE ACETATE]
10 | Compound NOT metabolized | Compound NOT metabolized | Compound NOT metabolized | – | Compound metabolized | Compound NOT metabolized | Compound NOT metabolized | Compound NOT metabolized | Compound NOT metabolized | Compound metabolized | Compound NOT metabolized | Compound NOT metabolized | Compound metabolized | Compound NOT metabolized | Compound NOT metabolized | Compound NOT metabolized | Compound NOT metabolized | – | Compound NOT metabolized | Compound NOT metabolized | CCCCCNC(=N)N/N=C/c1c[nH]c2ccc(OC)cc12.O=C(O)/C=C\C(=O)O [TEGASEROD MALEATE]
